# Columns and labels:
# [1] = target: T1, Danio rerio (zebrafish) DHFR (zDHFR) (Danio rerio, UniProt A0A8M1P929); experiment: […] HSQC NMR; assay type: binding
# T1 sequence (A0A8M1P929 1-190): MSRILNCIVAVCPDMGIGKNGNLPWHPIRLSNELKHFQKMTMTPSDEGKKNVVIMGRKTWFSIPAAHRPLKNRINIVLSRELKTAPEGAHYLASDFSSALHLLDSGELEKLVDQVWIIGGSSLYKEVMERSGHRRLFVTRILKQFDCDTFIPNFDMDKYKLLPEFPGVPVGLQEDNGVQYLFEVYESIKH
# [2] = target: T2, human dihydrofolate reductase (hDHFR) (Homo sapiens, UniProt P00374); experiment: X-ray crystal structure; assay type: biochemical
# T2 sequence (P00374 1-187): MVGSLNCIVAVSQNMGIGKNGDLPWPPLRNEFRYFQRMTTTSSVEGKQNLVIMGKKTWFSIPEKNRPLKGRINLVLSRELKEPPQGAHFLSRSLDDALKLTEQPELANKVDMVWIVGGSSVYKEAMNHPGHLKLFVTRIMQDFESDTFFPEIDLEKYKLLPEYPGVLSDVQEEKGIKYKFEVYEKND
# [3] = target: E. coli dihydrofolate reductase (ecDHFR) (Escherichia coli, UniProt P0ABQ4); experiment: product inhibition of initial rate, absorbance at […] nm; assay type: biochemical
# [4] = target: E. coli dihydrofolate reductase (ecDHFR) N23PP S148A (Escherichia coli, UniProt P0ABQ4, INS23P/N23P/S148A); experiment: as above; assay type: biochemical
Compound,15N HSQC NMR [1],IC50 [2],IC50 [3],IC50 [4]
"Nc1nc(=O)c2nc(CNc3ccc(C(=O)N[C@@H](CCC(=O)O)C(=O)O)cc3)cnc2[nH]1 [FOL, folic acid]","Each panel shows a superposition of E– NADP^+–FOL (model Michaelis complex, black) and E–NADP^+– THF",,,
"NC(=O)c1ccc[n+]([C@@H]2O[C@H](COP(=O)(O)OP(=O)(O)OC[C@H]3O[C@@H](n4cnc5c(N)ncnc54)[C@H](OP(=O)(O)O)[C@@H]3O)[C@@H](O)[C@H]2O)c1 [NADP+, NADP^+]",,~620 µM,6520 µM,1270 µM
